In US20200054646A1, “USE OF PHENOTHIAZINE DERIVATIVE IN THE TREATMENT OF INFECTIOUS PURPURA OR PURPURA FULMINANS” (priority 2016, published 2020):

Columns and labels:
[1] = tested on: N. meningitidis 2C4.3 bacterial aggregates; test: microbe, parasite or virus in culture; assay type: cell-based, Neisseria meningitidis
Method: N. meningitidis 2C4.3 was grown in liquid culture at 10^7 CFU/ml for 2 h to form bacterial aggregates and were treated with increasing concentrations of Trifluoperazine (10 to 40 μM), Gentamicin (150 μg/ml) or cefotaxim (20 μg/ml) for 20 minutes and bacterial aggregates were immediately visualized using a phase-contrast microscope. […] (B) Quantification of the bacterial aggregation was performed using Image J software.
(§1) N. meningitidis 2C4.3 wild type strain and the isogenic derivative mutant PilT ([…]PilT) were grown in liquid culture at 10^7 CFU/ml for 2 h to form bacterial aggregates and then treated with 50 μM Trifluoperazine. Time lapse phase-contrast video microscopy was performed to visualize the effect on bacterial aggregates over time. Images were taken at the indicated time points of the video.
N. meningitidis 2C4.3 was grown in liquid culture at 10^7 CFU/ml for 2 h to form bacterial aggregates and were treated with 30 μM Trifluoperazine for 30 minutes to induce bacterial dispersion or PBS as a control. The medium was replaced to remove the Trifluoperazine and the reformation of bacterial aggregates were visualized overtime using a phase-contrast microscope.
FIG. 7. […] Bacteria were grown in suspension for 2 h then Phenothiazine derivatives were added at the indicated concentrations.
N. meninigitidis 2C4.3 strain was grown in suspension in wells of a 24 well plate, containing 1 ml of DMEM medium supplemented with 10% heat-inactivated fetal calf serum. After 2 h of growth, Trifluoperazine (or control vehicle) was added at various concentrations ranging from 10 to 40 μM for 20 min and the bacterial aggregates were visualized over time using a phase-contrast microscope.
N. meninigitidis 2C4.3 strain was grown in suspension in wells of a 24 well plate, containing 1 ml of DMEM medium supplemented with 10% heat-inactivated fetal calf serum. After 2 h of growth, various concentrations (0.5 to 80 μM) of phenothiazine-derivative compounds or control vehicle (PBS or DMSO) were added to the wells for 30 min and the bacterial aggregates were visualized using a phase-contrast microscope.
Were tested phenothiazine-derivative compounds of: • the Piperazine group: Trifluoperazine (Sigma #T8516), Fluphenazine (Sigma #F4765), Prochlorperazine (Sigma #P9178) Perphenazine (Sigma #P6402); • the Piperidine group: Thioridazine (Sigma #T9025) and Mesoridazin (Sigma #M4068); • the Aliphatic group: Chlorpromazine (Sigma #C8138), Promazine (Sigma #P6656), Triflupromazine (Sigma #1686003) and levomepromazine (Sigma #L0500000).

[2] = tested on: type IV pili of N. meningitidis 2C4.3 and isogenic PilT mutant; test: Aggregation and type IV pili of wild type and PilT mutant (phase-contrast and transmission electron microscopy); assay type: cell-based, Neisseria meningitidis
Method: as §1
N. meningitidis 2C4.3 wild type strain and the isogenic derivative mutant PilT ([…]PilT) were grown in liquid culture at 10^7 CFU/ml for 2 h to form bacterial aggregates and then treated with 50 μM Trifluoperazine for 15 minutes before analysis by transmission electron microscopy. Arrows point at bundles of type IV pili expressed at the bacterial surface.
N. meninigitidis 2C4.3 strain and the isogenic derivative mutant PilT, where the pilT gene was interrupted by an erythromycin-resistance cassette (Pujol et al., 1999), were grown in suspension in DMEM medium supplemented with 10% heat-inactivated fetal calf serum. PilT belongs to a highly conserved protein family homologous to AAA-type motor proteins and is proposed to cause the retraction of type IV pili by disassembling the pilin subunits at the base of the fiber (Morand et al., 2004). After 2 h of growth, Trifluoperazine (or control vehicle) was added at 50 μM for 20 min. The effect on bacterial aggregates were visualized over time using a phase-contrast microscope or the bacterial suspensions were fixed in 4% Paraformaldehyde for 10 min, centrifuged at 1000 rpm for 5 minutes and the bacterial pellets washed in PBS. After negative staining with 1% phosphotungstic acid, bacteria were analysed by transmission electron microscopy, using a JEOL 1011 microscope.

[3] = tested on: HBMECs infected with meningococci; test: PECAM-1 recruitment at bacterial adhesion sites in infected HBMEC; assay type: cell-based, human; conditions: 5 μM, 2 h infection
Method: (A) Monolayers of HBMECs were non-infected or infected for 2 h with meningococci and the effect on the localisation of the endothelial cell junction proteins PECAM-1 and […]-catenin was analysed by immunofluorescence analysis. Arrows point at PECAM-1 molecules recruited at bacterial adhesion sites (B) HBMECs were infected for 2 h with meningococci in the presence or in the absence of 5 μM Trifluoperazine and the effect on junctional PECAM-1 and on the endothelial cell cytoskeleton remodelling (Ezrin, Actin) was analysed by immunofluorescence analysis. (C) Quantification of Actin and PECAM-1 recruitment at sites of bacterial adhesion was performed using Image J software.
HDMECs were grown in their specific culture medium (Promocell #C-12210) and confluent monolayers were infected with 2C4.3. Briefly, bacteria were precultured in prewarmed cell culture medium for 1 h 30 min at 37° C. 5% CO2. The OD600 was adjusted to 0.1 and HDMECs were then overlaid with bacteria for 30 min (MOI of 100). Unbound bacteria were removed by three washes in cell culture media and infection was allowed to proceed for 1 h at 37° C. 5% CO2. Gentamicin was added at 150 μg/ml for 1 h, then after three washes in cell culture media, Trifluoperazine was applied where mentioned at 50 μM for 20 min. […] Quantifications were done using ImageJ software (NIH).

[4] = tested on: Nm2C4.3 microcolonies on HCMEC/D3; assay type: cell-based, Neisseria meningitidis
Method: HCMEC/D3, a well-established human brain endothelial cell line (Weksler et at, 2013) was grown in EBM-2 basal medium (Lonza, Walkersville, Md., USA) supplemented with 5% Fetal Bovine Serum “Gold”, 10 mM HEPES (PAA Laboratories GmbH, Pasching, Austria), 1% Penicillin-Streptomycin, 1% chemically defined lipid concentrate (Invitrogen Ltd, Paisley, UK), 1.4 μM hydrocortisone, 5 μg·ml^−1 ascorbic acid and 1ng·ml^−1 bFGF (Sigma-Aldrich, St. Louis, Mo.). Cells were grown on Thermanox coverslips coated with rat collagen I for 4 days at 37° C. in a humidified incubator in 5% CO2. Cells were then infected with a suspension of Nm2C4.3 (˜10^7 CFU/ml) in EBM2/FBS during 30 minutes to allow bacterial adhesion. Cells were then washed three times with medium to remove non-adherent bacteria and infection was pursued for 1 h 30: adherent bacteria grew at the endothelial cell surface and formed micro-colonies. Trifluoperazine was then added to obtain final concentrations of 10, 20, 30 and 40 μM. After incubation for 30 minutes, cells were washed and fixed in 4% Paraformaldehyde for 10 min, washed three times with PBS, and permeabilized with 0.1% Triton X-100 in PBS for 10 min. […] Quantification was done with ImageJ software (NIH). […]

[5] = tested on: meningococcal colonization of the human dermal vasculature; test: In vivo infection of mice engrafted with human skin

SMILES	dispersion of bacterial aggregates formed in suspension ([1]; Gentamicin 150 μg/ml, 20 minutes)	reversibility of the effect on aggregation upon removal ([1]; 30 μM for 30 minutes, then medium replaced)	dispersion of bacterial aggregates pre-formed for two hours ([1]; 10 to 40 μM, 20 min)	concentration range of dose-dependent dispersion of aggregates ([1]; 20 min treatment, suspension) [µM]	EC80 ([1]; Neisseria meningitidis, 0.5 h, read-out: Concentration promoting efficient meningococcal dispersal (~80%)) [µM]	time after addition at which dispersion occurs ([1]; time lapse video microscopy, 50 μM) [min]	surface expression of type IV pili, PilT mutant (TEM) ([2]; 50 μM)	type IV pili on bacterial surface, wild type 2C4.3 (TEM) ([2]; 50 μM for 30 minutes)	effect on aggregation of PilT mutant strain ([2]; 50 μM, PilT mutant unable to retract type IV pili)	PECAM-1 recruitment at bacterial adhesion sites [3]	bacterial colonization [3]	concentration range of dose-dependent microcolony dispersion ([4]; 30 min, HCMEC/D3) [µM]	dispersion of microcolonies on human brain endothelial cells ([4]; treatment for 30 min)	colonization of the human dermal vasculature ([5]; mice engrafted with human skin)	incidence of vascular alteration ([5]; mice engrafted with human skin)	signs of intravascular coagulation ([5]; mice engrafted with human skin)	hallmark of vascular inflammation ([5]; trifluoperazine alone or in combination with cefotaxime)
CN[C@@H]1[C@@H](O)C(O[C@@H]2[C@@H](O)[C@H](O[C@H]3O[C@H]([C@@H](C)NC)CC[C@H]3N)[C@@H](N)C[C@H]2N)OC[C@]1(C)O (stereo partly drawn) [Gentamicin, (3R,4R,5R)-2-{[(1S,2S,3R,4S,6R)-4,6-diamino-3-{[(2R,3R,6S)-3-amino-6-[(1R)-1-(methylamino)ethyl]oxan-2-yl]oxy}-2-hydroxycyclohexyl]oxy}-5-methyl-4-(methylamino)oxane-3,5-diol]	did not significantly induce the dispersion																
CN1CCN(CCCN2c3ccccc3Sc3ccc(C(F)(F)F)cc32)CC1 [Trifluoperazine]		reversible	induced their dispersion	10 to 40	30	10 to 15	did not affect	no longer observed	no effect	prevented PECAM-1 recruitment	did not affect	10 to 40	induced their dispersion	prevents the massive colonization	reduces incidence of vascular alteration	reduces the signs of intravascular coagulation	drastically reduced
